Molecules are shown by their SMILES. Read-outs that look alike come from different tables or passages of the source.

For assay [1], the target named is T1, MTHFD2 recombinant human enzyme (Homo sapiens, UniProt P13995).
T1 sequence (P13995 36-350): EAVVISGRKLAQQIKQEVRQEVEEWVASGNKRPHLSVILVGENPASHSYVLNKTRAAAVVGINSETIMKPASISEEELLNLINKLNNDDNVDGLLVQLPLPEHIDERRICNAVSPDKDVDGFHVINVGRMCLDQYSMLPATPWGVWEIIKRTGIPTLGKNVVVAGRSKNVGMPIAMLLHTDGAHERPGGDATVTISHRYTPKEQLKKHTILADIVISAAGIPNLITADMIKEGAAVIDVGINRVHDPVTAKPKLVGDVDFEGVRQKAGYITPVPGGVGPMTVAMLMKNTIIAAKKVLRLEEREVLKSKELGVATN
Briefly: MTHFD2 inhibition assay (NAD(P)H-Glo luminescence). Conditions: for MTHFD1/MTHFD2 IC50 ratio: selectivity of MTHFD2 inhibition over MTHFD1, band.

The test system of another assay is human CD4+ T cells. The assay can be described thus: Human CD4+ T-cell proliferation assay (CFSE, CD3/28 beads). Conditions: read-out: Proliferation IC50.
The target of assay [2] is T2, human α4β2 neuronal nicotinic receptor (Homo sapiens, UniProt P17787+P43681).
T2 construct: host or cells: SH-SY5Y cells (membrane homogenates)
T2 sequence (P43681 29-627 limits assumed): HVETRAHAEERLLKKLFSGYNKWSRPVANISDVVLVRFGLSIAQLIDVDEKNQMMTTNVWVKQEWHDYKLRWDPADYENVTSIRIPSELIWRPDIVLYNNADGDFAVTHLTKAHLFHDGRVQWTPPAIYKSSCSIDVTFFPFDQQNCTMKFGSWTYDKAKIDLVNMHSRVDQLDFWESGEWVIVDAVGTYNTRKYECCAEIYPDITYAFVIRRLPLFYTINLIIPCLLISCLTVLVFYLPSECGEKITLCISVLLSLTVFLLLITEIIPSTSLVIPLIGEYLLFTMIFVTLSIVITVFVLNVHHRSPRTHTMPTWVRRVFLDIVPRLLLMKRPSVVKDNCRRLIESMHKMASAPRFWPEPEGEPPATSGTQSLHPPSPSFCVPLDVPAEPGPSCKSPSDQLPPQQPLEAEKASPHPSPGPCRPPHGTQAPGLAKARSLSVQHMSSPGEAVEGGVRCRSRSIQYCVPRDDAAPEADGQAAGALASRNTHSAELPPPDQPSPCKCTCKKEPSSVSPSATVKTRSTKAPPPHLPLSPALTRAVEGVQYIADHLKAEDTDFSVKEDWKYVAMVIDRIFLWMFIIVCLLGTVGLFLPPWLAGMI
T2 sequence (P17787 26-502): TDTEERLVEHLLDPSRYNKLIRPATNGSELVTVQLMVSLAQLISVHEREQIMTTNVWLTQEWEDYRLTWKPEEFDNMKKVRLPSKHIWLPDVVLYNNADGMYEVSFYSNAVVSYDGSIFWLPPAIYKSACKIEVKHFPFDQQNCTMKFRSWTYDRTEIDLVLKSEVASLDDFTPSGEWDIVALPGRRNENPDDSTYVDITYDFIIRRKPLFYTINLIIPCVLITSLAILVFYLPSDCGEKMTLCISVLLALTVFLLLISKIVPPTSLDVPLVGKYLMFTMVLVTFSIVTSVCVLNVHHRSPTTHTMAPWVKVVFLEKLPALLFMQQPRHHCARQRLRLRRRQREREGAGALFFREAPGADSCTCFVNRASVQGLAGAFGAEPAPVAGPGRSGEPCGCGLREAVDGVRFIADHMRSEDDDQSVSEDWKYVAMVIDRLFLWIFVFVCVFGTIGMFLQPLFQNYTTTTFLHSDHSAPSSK
Briefly: α4β2 neuronal nicotinic receptor assay (agonist radioligand, [3H]cytisine). Format: binding. The protocol:
Cell membrane homogenates (30 μg protein) were incubated for 120 min at 4° C. with 0.6 nM [3H]cytisine in the absence or presence of the test compound in a buffer containing 50 mM Tris-HCl (pH 7.4), 120 mM NaCl, 5 mM KCl, 2.5 mM CaCl2 and 1 mM MgCl2. Nonspecific binding was determined in the presence of 10 μM nicotine bitartrate. Following incubation, the samples were filtered rapidly under vacuum through glass fiber filters (GF/B, Packard) presoaked with 0.3% PEI and rinsed several times with ice-cold 50 mM Tris-HCl using a 96-sample cell harvester (Unifilter, Packard).
The filters were dried then counted for radioactivity in a scintillation counter (Topcount, Packard) using a scintillation cocktail (Microscint 0, Packard). The results were expressed as a percent inhibition of the control radioligand specific binding. The standard reference compound was nicotine bitartrate.
A number of example compounds of formula (I) were tested to evaluate their affinity for the human α4β2 neuronal nicotinic receptor expressed in transfected SH-SY5Y cells, determined in a radioligand binding assay.

Assay [3] concerns the target T3, MTHFD1 recombinant human enzyme (Homo sapiens, UniProt P11586).
T3 sequence (P11586 2-291 limits assumed): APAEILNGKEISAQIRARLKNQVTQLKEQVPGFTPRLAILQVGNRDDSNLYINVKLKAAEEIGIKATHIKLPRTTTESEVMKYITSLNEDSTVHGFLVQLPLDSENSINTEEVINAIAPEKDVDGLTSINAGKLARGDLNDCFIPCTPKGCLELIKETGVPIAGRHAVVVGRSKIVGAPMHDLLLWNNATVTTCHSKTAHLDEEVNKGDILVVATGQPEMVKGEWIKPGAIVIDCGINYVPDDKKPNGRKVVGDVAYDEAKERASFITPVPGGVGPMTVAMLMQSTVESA
The assay can be described thus: MTHFD1 inhibition assay (NAD(P)H-Glo luminescence).

The mark [4] stands for this setting: transfected SH-SY5Y cell membranes, 0.6 nM [3H]cytisine, band.
Setting [5] is: MTHFD1 IC50, recombinant human enzyme 200 nM, NADP, band.

As to `COC[C@H]1CN(c2cc(C)c3c4c(c(=O)oc3c2C)CN(C(=O)c2ccc(C(=O)NS(=O)(=O)N3CC5CC5C3)c(OC)c2F)CC4)CCN1C` (stereo partly drawn) [Example 156, N-((3-azabicyclo[3.1.0]hexan-3-yl)sulfonyl)-3-fluoro-2-methoxy-4-(8-((R)-3-(methoxymethyl)-4-methylpiperazin-1-yl)-7,10-dimethyl-5-oxo-1,3,4,5-tetrahydro-2H-chromeno[3,4-c]pyridine-3-carbonyl)benzamide], the IC50 was in the range of 0.01 to 0.1 µM in assay [1], 0.03 to 0.1 µM with human CD4+ T cells, 20 to 100 µM in assay [2] (setting [4]) and 0.1 to 1 µM in assay [3] (setting [5]).
`COC[C@H]1CN(c2cc(C)c3c4c(c(=O)oc3c2C)CN(C(=O)c2cc(N(C)C)c(C(=O)NS(=O)(=O)N3CCCC3)cc2F)CC4)CCN1C` [Example 144, (R)-2-(dimethylamino)-5-fluoro-4-(8-(3-(methoxymethyl)-4-methylpiperazin-1-yl)-7,10-dimethyl-5-oxo-1,3,4,5-tetrahydro-2H-chromeno[3,4-c]pyridine-3-carbonyl)-N-(pyrrolidin-1-ylsulfonyl)benzamide]: the IC50 lay within 0.001 to 0.01 µM in assay [1], 0.001 to 0.01 µM in the assay on human CD4+ T cells, 20 to 100 µM in assay [2] (setting [4]) and 0.1 to 1 µM in assay [3] (setting [5]). Besides, the “MTHFD1/MTHFD2 IC50 ratio” value in assay [1] was “J (>30)”.
In the case of `COC[C@H]1CN(c2cc(C)c3c4c(c(=O)oc3c2C)CN(C(=O)c2cc(N(C)C)c(C(=O)NS(=O)(=O)C3(C)CC3)cc2F)CC4)CCN1C` [Example 145, (R)-2-(dimethylamino)-5-fluoro-4-(8-(3-(methoxymethyl)-4-methylpiperazin-1-yl)-7,10-dimethyl-5-oxo-1,3,4,5-tetrahydro-2H-chromeno[3,4-c]pyridine-3-carbonyl)-N-((1-methylcyclopropyl)sulfonyl)benzamide], the IC50 was 0.001 to 0.01 µM in assay [1], 0.01 to 0.03 µM in the assay with human CD4+ T cells, greater than 100 µM in assay [2] (setting [4]) and 0.1 to 1 µM in assay [3] (setting [5]). Also, the “MTHFD1/MTHFD2 IC50 ratio” value in assay [1] is “J (>30)”.
Turning to `COC[C@H]1CN(c2ccc3c4c(c(=O)oc3c2C)CN(C(=O)c2ccc(C(=O)NS(=O)(=O)N(C)C)c(N3CCCC3)c2)CC4)CCN1C` [Example 18, (R)-N-(N,N-dimethylsulfamoyl)-4-(8-(3-(methoxymethyl)-4-methylpiperazin-1-yl)-7-methyl-5-oxo-1,3,4,5-tetrahydro-2H-chromeno[3,4-c]pyridine-3-carbonyl)-2-(pyrrolidin-1-yl)benzamide], the IC50 was 0.001 to 0.01 µM in assay [1], greater than 100 µM in assay [2] (setting [4]) and 0.01 to 0.1 µM in assay [3] (setting [5]). Also, the “MTHFD1/MTHFD2 IC50 ratio” value in assay [1] is recorded as “G (^ 3 to 9.0)”.
Take `COC[C@H]1CN(c2ccc3c4c(c(=O)oc3c2C)CN(C(=O)c2ccc(C(=O)NS(=O)(=O)N3CCCC3)c(OC3CCCC3)c2F)CC4)CCN1C` [Example 12, (R)-2-(cyclopentyloxy)-3-fluoro-4-(8-(3-(methoxymethyl)-4-methylpiperazin-1-yl)-7-methyl-5-oxo-1,3,4,5-tetrahydro-2H-chromeno[3,4-c]pyridine-3-carbonyl)-N-(pyrrolidin-1-ylsulfonyl)benzamide]: the values for the IC50 in assay [1], in assay [2] (setting [4]) and in assay [3] (setting [5]) were 0.001 to 0.01 µM, greater than 100 µM and 0.001 to 0.01 µM, respectively. Also, the “MTHFD1/MTHFD2 IC50 ratio” value in assay [1] is “F (<3)”.
With `COC[C@@H]1CN(c2cc(C)c3c4c(c(=O)oc3c2C)CN(C(=O)c2ccc(C(=O)NS(=O)(=O)N3CCCC3)c(OC3CCC3)c2F)CC4)CCN1C` [Example 174, (S)-2-cyclobutoxy-3-fluoro-4-(8-(3-(methoxymethyl)-4-methylpiperazin-1-yl)-7,10-dimethyl-5-oxo-1,3,4,5-tetrahydro-2H-chromeno[3,4-c]pyridine-3-carbonyl)-N-(pyrrolidin-1-ylsulfonyl)benzamide], the IC50 in assay [1] lay within 0.01 to 0.1 µM; in the assay with human CD4+ T cells, 0.01 to 0.03 µM; in assay [2] (setting [4]), 20 to 100 µM; in assay [3] (setting [5]), 0.1 to 1 µM. Moreover, the “MTHFD1/MTHFD2 IC50 ratio” value in assay [1] was “G (^ 3 to 9.0)”.
Consider `COC[C@H]1CN(c2cc(C)c3c4c(c(=O)oc3c2C)CN(C(=O)c2ccc(C(=O)NS(=O)(=O)C3(C)CC3)c(OC3CCC3)c2)CC4)CCN1C` [Example 2, (R)-2-cyclobutoxy-4-(8-(3-(methoxymethyl)-4-methylpiperazin-1-yl)-7,10-dimethyl-5-oxo-1,3,4,5-tetrahydro-2H-chromeno[3,4-c]pyridine-3-carbonyl)-N-((1-methylcyclopropyl)sulfonyl)benzamide], for which the values for the IC50 in assay [1], in assay [2] (setting [4]) and in assay [3] (setting [5]) were 0.01 to 0.1 µM, 20 to 100 µM and 0.1 to 1 µM, respectively. For the same compound, in assay [1], the “MTHFD1/MTHFD2 IC50 ratio” value is given as “G (^ 3 to 9.0)”.
With `Cc1c(N2CCN(C)[C@@H](C)C2)ccc2c3c(c(=O)oc12)CN(C(=O)c1ccc(NS(C)(=O)=O)c(OC(F)(F)F)c1)CC3` [Reference Example 1, reference compound], the IC50 in assay [1] (MTHFD2 IC50, recombinant human enzyme 40 nM, NAD+, band) was 0.01 to 0.1 µM; in assay [1] (MTHFD2 IC50, specific value, average of multiple repeats) it was 0.045 µM; in assay [2], less than 2 µM; in assay [2] (setting [4]) it was less than 2 µM; in assay [3] (setting [5]) it was 0.1 to 1 µM; in assay [3] (MTHFD1 IC50, specific value, average of multiple repeats), 0.41 µM.
Turning to `COC[C@H]1CN(c2cc(C)c3c4c(c(=O)oc3c2C)CN(C(=O)c2ccc(C(=O)NS(=O)(=O)N(C)C(C)C)c(OC3CCC3)c2F)CC4)CCN1C` [Example 25, (R)-2-cyclobutoxy-3-fluoro-N-(N-isopropyl-N-methylsulfamoyl)-4-(8-(3-(methoxymethyl)-4-methylpiperazin-1-yl)-7,10-dimethyl-5-oxo-1,3,4,5-tetrahydro-2H-chromeno[3,4-c]pyridine-3-carbonyl)benzamide], the results for the IC50 in assay [1], in assay [2] (setting [4]) and in assay [3] (setting [5]) were 0.001 to 0.01 µM, 20 to 100 µM and 0.001 to 0.01 µM, respectively. For the same compound, in assay [1], the “MTHFD1/MTHFD2 IC50 ratio” value is listed as “F (<3)”.
Regarding `COC[C@H]1CN(c2cc(C)c3c4c(c(=O)oc3c2C)CN(C(=O)c2ccc(C(=O)NS(=O)(=O)C3(C)CC3)c(N3CCCC3)c2)CC4)CCN1C` [Example 45, (R)-4-(8-(3-(methoxymethyl)-4-methylpiperazin-1-yl)-7,10-dimethyl-5-oxo-1,3,4,5-tetrahydro-2H-chromeno[3,4-c]pyridine-3-carbonyl)-N-((1-methylcyclopropyl)sulfonyl)-2-(pyrrolidin-1-yl)benzamide], the IC50 in assay [1] is 0.001 to 0.01 µM; in assay [2] (setting [4]), 20 to 100 µM; in assay [3] (setting [5]), 0.01 to 0.1 µM. Besides, the “MTHFD1/MTHFD2 IC50 ratio” value in assay [1] was “H (>9.0 to 30)”.
The corresponding values for `COC[C@H]1CN(c2cc(C)c3c4c(c(=O)oc3c2C)CN(C(=O)c2ccc(C(=O)NS(=O)(=O)N(C)C)c(N3CCCC3)c2)CC4)CCN1C` [Example 20, (R)-N-(N,N-dimethylsulfamoyl)-4-(8-(3-(methoxymethyl)-4-methylpiperazin-1-yl)-7,10-dimethyl-5-oxo-1,3,4,5-tetrahydro-2H-chromeno[3,4-c]pyridine-3-carbonyl)-2-(pyrrolidin-1-yl)benzamide] are 0.001 to 0.01 µM, 2 to 20 µM, 0.001 to 0.01 µM and “G (^ 3 to 9.0)”.
The corresponding values for `COC[C@H]1CN(c2cc(C)c3c4c(c(=O)oc3c2C)CN(C(=O)c2ccc(C(=O)NS(=O)(=O)N(C)C(C)C)c(OC3CCCC3)c2F)CC4)CCN1C` [Example 24, (R)-2-(cyclopentyloxy)-3-fluoro-N-(N-isopropyl-N-methylsulfamoyl)-4-(8-(3-(methoxymethyl)-4-methylpiperazin-1-yl)-7,10-dimethyl-5-oxo-1,3,4,5-tetrahydro-2H-chromeno[3,4-c]pyridine-3-carbonyl)benzamide] are 0.001 to 0.01 µM, 20 to 100 µM, 0.001 to 0.01 µM and “F (<3)”.

The values above are taken from patent US12662489B2 (Sitryx Therapeutics Limited, priority 2023, dated 2026).
